Patent US20130116274A1 (RUTGERS, THE STATE UNIVERSITY OF NEW JERSEY, priority 2011, published 2013)

Key:
[1] = tested on: SKMEL2 human melanoma cell line; assay: Three dimensional anchorage independent colony assay, SKMEL2; type: cell-based; settings: riluzole 10 μM, sorafenib 5 μM or both; 14 days; vs control group; FIG. 2
Experimental: (§1) The cells were suspended in 0.35% agar in RPMI supplemented with 10% FBS and plated on a layer of 0.75% agar in the same medium in 12-well culture plates (1−1.5×10^4 cells/well). […] Every other day, the vehicle, or drug(s) was again added with 250 μl of complete medium. After 14 days, the colonies were stained with iodonitrotetrazolium chloride (Sigma) and photographed. The numbers of colonies were counted using Image J software. Quantitation was performed by comparing the total number of colonies from three representative photomicrographs from each experiment. The histograms represent the average of three independent experiments.

[2] = tested on: UACC903 human melanoma cell line; assay: Three dimensional anchorage independent colony assay, UACC903; type: cell-based; settings: riluzole 10 μM, sorafenib 5 μM or both; 14 days; FIG. 2
Experimental: as §1

Mcl-1 = assay: Western immunoblot, Mcl-1 levels; type: cell-based, human; settings: C8161, UACC903 and 1205Lu cells
[3] = tested on: 1205Lu human melanoma cell line; assay: Three dimensional anchorage independent colony assay, 1205Lu; type: cell-based; settings: riluzole 10 μM, sorafenib 5 μM or both; 14 days; FIG. 2
Experimental: as §1

C8161 melanoma cells = assay: MTT cell viability assay, C8161; settings: for cell proliferation and viability (number of viable cells): single agent, seven days, FIG. 1A
Experimental: (§6) MTT cell viability assays were performed as known in the art. C8161, UACC903, 1205Lu, SKMEL 187 and A2058 melanoma cell lines were used in the MTT assays. […] Viable cells were measured every day for 4 or 7 days. Absorbance was determined using a Tecan plate reader (Infinite 200 Tecan USA, Durham, N.C.) at 570 nm everyday for up to 7 days.

UACC903 melanoma cells [4] = assay: MTT cell viability assay, UACC903; type: cell-based, human; settings: for cell proliferation and viability (number of viable cells): single agent, seven days
Experimental: as §6

[5] = tested on: 1205Lu human melanoma xenografts; assay: 1205Lu xenografts in immunodeficient nude mice; type: in vivo; settings: riluzole 10 mg/kg, sorafenib 24 mg/kg, or riluzole 5 mg/kg + sorafenib 12 mg/kg daily oral gavage; FIG. 3C
Experimental: (§2) The Institutional Review Board approved all animal studies for the Animal Care and Facilities Committee of Rutgers University. Nude mice were purchased from Taconic (Hudson, N.Y.). Cells were injected into 2 dorsal sites of each mouse at 10^6 cells per site. Tumor size was measured twice a week with a Vernier caliper and calculated as described. Once tumor volumes reached 6-10 mm^3, mice were divided into no treatment and treatment groups. […] The experiments were terminated when the xenografts in the no treatment group reached the maximum permitted size.

ERK phosphorylation = assay: Western immunoblot, ERK phosphorylation; type: cell-based, human; settings: C8161, UACC903 and 1205Lu cells; harvested xenografts showed similar results
Experimental: (§3) Protein lysates were prepared as commonly known in the art. Briefly, media was removed and cells were washed once with ice-cold phosphate buffered saline (PBS). After removal of PBS, the extraction buffer was added directly to the plates and cells were collected with a cell scraper. Cells were incubated on ice for 20 minutes. Cell debris was removed by centrifugation at 25,000×g at 4° C. for 20 minutes and supernatant taken for Western immunoblot analysis. Western Blotting was carried out with anti-PARP, anti-cleaved PARP, anti-phospho ERK, anti-total ERK, anti-a-tubulin antibodies, anti AKT and anti-Phospho AKT-S473.

[6] = tested on: UACC903 human melanoma xenografts; assay: UACC903 xenografts in immunodeficient nude mice; type: in vivo
Experimental: as §2
(§4) Briefly, UACC903 cells were injected into the dorsal flanks of nude mice. Tumors were allowed to grow to approximately 6-10 mm^3 and mice were divided into groups to obtain relatively constant tumor volumes between each group (12 mice per group).

1205Lu melanoma cells [7] = assay: MTT cell viability assay, 1205Lu; type: cell-based, human; settings: for cell proliferation and viability (number of viable cells): single agent, seven days, FIG. 1C
Experimental: as §6

excised tumor xenografts = assay: Immunohistochemistry on excised xenografts (riluzole/sorafenib study); type: in vivo, mice; settings: for number of Ki-67 positive cells: Ki-67 immunohistochemistry; for number of positive Caspase 3 cells vs controls: cleaved Caspase 3 immunohistochemistry
Excerpt: (§5) Tissue Analytical Services at the Cancer Institute of New Jersey performed immunohistochemical staining on excised tumor xenografts to detect changes in the number of apoptotic and proliferating cells (activated Caspase 3 and Ki-67, respectively). The number of stained cells was quantified with a Digital Aperio ScanScopeGL system and ImageScope software (v 10.1.3.2028) (Aperio Technologies Inc., Vista, Calif.) according to the manufacturer's protocol.
Additionally, immunohistochemical analyses were performed on excised xenografts using antibodies against the cleaved form of Caspase 3 to detect apoptotic cell death, and Ki-67 to detect changes in cell proliferation.

[8] = tested on: C8161 human melanoma cell line; assay: Three dimensional anchorage independent colony assay, C8161; type: cell-based; settings: riluzole 10 μM, sorafenib 5 μM or both; 14 days; FIG. 2
Experimental: as §1

[9] = tested on: C8161 human melanoma xenografts; assay: C8161 xenografts in immunodeficient nude mice; type: in vivo; settings: riluzole 10 mg/kg
Experimental: as §2
C8161 human melanoma cells were inoculated into the dorsal flanks of immunodeficient nude mice. 10^6 cells were inoculated into each dorsal flank of 5-6 week-old mice. When the tumors reached tumor volumes of ˜10 mm^3, the mice were randomly divided in 5 groups with similar tumor volumes. The mice were then treated by oral gavage daily, except for […] treatment, which was administered three times a week. […] Tumor volumes were determined once a week with a vernier caliper and the experiment was terminated when tumor burden in the control animals reached maximum permitted levels.

[10] = tested on: C8161 human melanoma xenografts; assay: Immunohistochemistry on excised C8161 xenografts (riluzole/MK2206 study); type: in vivo, mice; settings: riluzole 10 mg/kg; for cleaved Caspase-3-positive (apoptotic) cells: MK2206 30 mg/kg, or riluzole 5 mg/kg + MK2206 15 mg/kg, combination p<0.001 vs single agent
Excerpt: as §5
Excised tumor samples were subjected to immunohistochemistry evaluation with the apoptosis marker, cleaved Caspase-3, and the proliferation index marker, Ki-67.

UACC903 melanoma cells [11] = assay: Cell cycle analysis (propidium iodide flow cytometry), UACC903; type: cell-based, human; settings: riluzole 10 μM, 24 hours post-treatment
Experimental: as §6

advanced melanoma = settings: cited from earlier work
1205Lu melanoma cells [12] = assay: Cell cycle analysis (propidium iodide flow cytometry), 1205Lu; type: cell-based, human; settings: riluzole 10 μM, 24 hours post-treatment
Experimental: as §6

melanoma = settings: Phase II; cited from earlier work
AKT phosphorylation = assay: Western immunoblot, phosphorylated AKT; type: cell-based; settings: three human melanoma cell lines (C8161, UACC903, SKMEL 28)
Experimental: as §3

cleaved form of PARP = assay: Western analysis, cleaved PARP; type: cell-based, human; settings: riluzole 10 μM; UACC903, 1205Lu, A2058 cells; 24 and 48 hours
Experimental: as §3, §4

SKMEL 187 melanoma cells = assay: MTT cell viability assay, SKMEL 187; type: cell-based, human; settings: riluzole 25 μM or 50 μM vs no treatment or vehicle (DMSO)
Experimental: as §6

A2058 melanoma cells [13] = assay: MTT cell viability assay, A2058; type: cell-based, human; settings: riluzole 25 μM or 50 μM vs no treatment or vehicle (DMSO)
Experimental: as §6

A2058 melanoma cells [14] = assay: Cell cycle analysis (propidium iodide flow cytometry), A2058; type: cell-based, human; settings: riluzole 10 μM, 24 hours post-treatment
Experimental: as §6

[15] = tested on: SKMEL 28 human melanoma cells; assay: MTT cell viability assay, SKMEL 28; type: cell-based; settings: single agent 10 μM, FIG. 5A
Experimental: as §6

[16] = riluzole 25 μM or 50 μM vs no treatment or vehicle (DMSO)

Compound	decrease in colony formation [1]	reduction in the number of colonies [2]	Mcl-1 levels (Mcl-1)	reduction in colony formation [3]	cell proliferation and viability (number of viable cells) (C8161 melanoma cells)	cell proliferation and viability (number of viable cells) (UACC903 melanoma cells [4]; FIG. 1B)	ERK phosphorylation (ERK phosphorylation)	cell proliferation and viability (number of viable cells) (1205Lu melanoma cells [7])	number of Ki-67 positive cells (excised tumor xenografts)	number of positive Caspase 3 cells vs controls (excised tumor xenografts)	decrease in colony formation [8]	cleaved Caspase-3-positive (apoptotic) cells [10]	AKT phosphorylation (AKT phosphorylation)	also measured
CNC(=O)c1cc(Oc2ccc(NC(=O)Nc3ccc(Cl)c(C(F)(F)F)c3)cc2)ccn1 [sorafenib]	more efficacious at decreasing colony formation	45%	reduction in Mcl-1 levels was detected in sorafenib-treated UACC903 and 1205 LU cells	30%	not very effective in suppressing C8161 cell growth	substantial decrease in the number of viable cells	more highly suppress ERK phosphorylation in UACC903 and 1205Lu cells than in C8161 cells	substantial decrease in the number of viable cells	reduced	substantial increase in the number of positive Caspase 3 cells	little effect			tumor volume response compared to UACC903 xenografts [5]: more sensitive; tumor volume ([6]; riluzole 10 mg/kg, sorafenib 24 mg/kg, or riluzole 5 mg/kg + sorafenib 12 mg/kg daily oral gavage, FIG. 3B, p<0.01 single agents day 18, p<0.001 combination): statistically relevant responses; tumor volume ([9]; sorafenib 24 mg/kg, or riluzole 5 mg/kg + sorafenib 12 mg/kg daily oral gavage, FIG. 3A, p<0.001 for riluzole and combination vs NT or Veh): did not yield a significant decrease in tumor size
CCCS(=O)(=O)Nc1ccc(F)c(C(=O)c2c[nH]c3ncc(Cl)cc23)c1F [PLX4720]			does not down regulate the levels of Mcl-1				only found to suppress ERK activity in the B-RAF^V600E cell line UACC903							inhibition in cell proliferation (C8161 melanoma cells; PLX4720 10 uM): only slight inhibition in cell proliferation; IC50 (UACC903 melanoma cells [4]; Homo sapiens, UACC-903, UACC903 cells, MTT, FIG. 1B): 100 nM; tumor progression ([6]; riluzole 10 mg/kg, PLX4720 20 mg/kg, or riluzole 5 mg/kg + PLX4720 10 mg/kg, FIG. 3D): not as potent as riluzole
Nc1nc2ccc(OC(F)(F)F)cc2s1 [riluzole]	18%	very little inhibitory activity		30%	greatest reduction in the number of viable cells	not as sensitive to riluzole	decrease in levels of ERK phosphorylation in a cell line-dependent manner	not as sensitive to riluzole	reduced	substantial increase in the number of positive Caspase 3 cells	40%	significant increase in apoptotic cells	suppress AKT phosphorylation	number of viable cells (C8161 melanoma cells; [16]): significantly decreased the number of viable cells; number of viable cells (UACC903 melanoma cells [4]; [16]): significantly decreased the number of viable cells; tumor size vs controls ([6]; single agent riluzole daily by oral gavage, day 18, 12 mice per group): substantial difference between the tumor sizes; cells accumulating in the G2/M phase (UACC903 melanoma cells [11]): about half; patients showing measurable clinical responses (advanced melanoma; Phase 0, patients with advanced melanoma given riluzole): 34%; decrease in tumor size (advanced melanoma; Phase 0, some tumors): over 90%; cells accumulating in the G2/M phase (1205Lu melanoma cells [12]): about half; number of viable cells (1205Lu melanoma cells [7]; [16]): significantly decreased the number of viable cells; RECIST criteria responses (melanoma): no RECIST criteria responses; patients exhibiting stable disease (melanoma): 42%; cleaved form of PARP (cleaved form of PARP): increase in the cleaved form of PARP; number of viable cells (SKMEL 187 melanoma cells): significantly decreased the number of viable cells; number of viable cells (A2058 melanoma cells [13]): significantly decreased the number of viable cells; cells accumulating in the G2/M phase (A2058 melanoma cells [14]): about half
NC1(c2ccc(-c3nc4ccn5c(=O)[nH]nc5c4cc3-c3ccccc3)cc2)CCC1 [MK2206]												significant increase in apoptotic cells	suppress AKT phosphorylation	cell proliferation [15]: suppress cell proliferation; cell proliferation (C8161 melanoma cells; single agent 10 μM, FIG. 5A): suppress cell proliferation; cell proliferation (UACC903 melanoma cells [4]; single agent 10 μM, FIG. 5A): suppress cell proliferation; number of Ki-67 positive cells ([10]; MK2206 30 mg/kg, or combination at half the dose of each (p<0.001)): decrease in the number of Ki-67 positive cells; tumor volume / xenograft growth ([9]; MK2206 30 mg/kg, or riluzole 5 mg/kg + MK2206 15 mg/kg, oral gavage, FIG. 6, combination p<0.005 vs NT or vehicle): suppress the growth of the melanoma xenografts
